Consider eight molecules from PMC7824550 (Biomolecules, 2020).

Read-outs that look alike come from different tables or passages of the source. A value given as a limit tells only on which side of the number the result lay.

In series [1] the target is T1, human cathepsin B (Homo sapiens, UniProt P07858). Put plainly: Inhibition of cathepsin B, fluorogenic substrate Z-Phe-Arg-AMC. The following applies: for Ki: cathepsin B.
A further series concerns the target T2, human cathepsin L (Homo sapiens, UniProt P07711).
T2 construct: made in house
Put plainly: Inhibition of cathepsin L, fluorogenic substrate Z-Leu-Arg-AMC. The series is classed as biochemical. The settings on record: for Mechanism of inhibition of cathepsin L / Ki: pH 5.5.

Series [2] in a line: Solubility under the experimental conditions used. The series is classed as physicochemical. The settings on record: assay buffer of the cathepsin L inhibition screening, aqueous buffer; under the experimental conditions used (pH 5.5 assay buffer); read-out: Limited solubility. As for the experimental part: The kinetic characterization of CA, CAPE, and CGA was initially performed under the same conditions as the inhibition screening (pH 5.5). All compounds acted as fast, linear inhibitors of cathepsin L, as observed for DPPI [17]. Kinetic mechanisms and inhibition parameters were determined by a combination of titration curves (plots of the residual enzyme activity (vX/v0) against the inhibitor concentration) and replots of the experimental data as specific velocity plots. The remaining titration curves were collected in Supplementary Figure S1. […] However, a more precise characterization of its effect was made difficult by its limited solubility of only up to about 200 μM under the experimental conditions used.

For series [3], the target named is T1, human cathepsin B. Put plainly: Inhibition of peptidyl-dipeptidase activity of cathepsin B, substrate Abz-Gly-Ile-Val-Arg-Ala-Lys(Dnp)-OH. The following applies: pH 5.5, [S] = Km, read-out: IC50, peptidyl-peptidase activity of cathepsin B. The series is classed as biochemical. Set-up: made in house. As for the experimental part:
In addition, the peptidyl-dipeptidase activity of cathepsin B was measured with the internally quenched fluorigenic substrate Abz-Gly-Ile-Val-Arg-Ala-Lys(Dnp)-OH. Cleavage of this substrate was assessed at λex = 370 nm and λem = 430 nm. […] Nevertheless, appropriate correction of the inner filter effect was performed for all compounds according to the following reference.
For linear (complete) inhibitors, v∞ = 0.

Another series has as its target T3, cathepsin K (Homo sapiens, UniProt P43235).
T3 sequence (P43235 115-329): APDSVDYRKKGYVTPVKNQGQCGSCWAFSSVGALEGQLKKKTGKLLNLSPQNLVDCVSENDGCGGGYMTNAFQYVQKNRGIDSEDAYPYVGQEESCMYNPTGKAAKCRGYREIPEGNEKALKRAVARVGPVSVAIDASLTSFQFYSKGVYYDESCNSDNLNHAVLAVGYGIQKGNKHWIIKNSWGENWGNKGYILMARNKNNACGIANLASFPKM
Put plainly: Inhibition of cathepsin K (results not shown). Type of series: biochemical. The following applies: confirmed in the authors' laboratory.

The test system of series [4] is dipeptidyl-peptidase I (DPPI). Set-up: method as in PMID 31574257. The following applies: previously characterized; cited from earlier work.
Where [5] appears, read: KCa, pH 5.5, catalytic (uncompetitive) inhibition constant.
[6] abbreviates: KCa, pH 7.4, catalytic (uncompetitive) inhibition constant.
Setting [7] is: KSp, pH 7.4, specific (competitive) inhibition constant.
The mark [8] stands for this setting: catalytic (uncompetitive) inhibition constant, read-out: KCa, cathepsin L.
The mark [9] stands for this setting: specific (competitive) inhibition constant, read-out: KSp, cathepsin L.
[10] abbreviates: KSp, pH 5.5, specific (competitive) inhibition constant.

T2 sequence (P07711 114-333): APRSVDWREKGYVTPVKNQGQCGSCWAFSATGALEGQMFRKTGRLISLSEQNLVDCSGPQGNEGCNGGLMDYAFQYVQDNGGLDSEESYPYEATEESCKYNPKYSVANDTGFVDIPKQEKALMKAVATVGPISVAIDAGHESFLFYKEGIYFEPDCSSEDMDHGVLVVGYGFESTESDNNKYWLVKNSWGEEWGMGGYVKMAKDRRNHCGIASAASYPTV

Usually IC50 stands for the midpoint of a concentration-inhibition curve. For `O=C(O)C=Cc1ccc(O)cc1O` [2,4-Dihydroxy-cinnamic acid, 2,4-dihydroxycinnamic acid], the IC50 turned out to be 910 ± 30 µM against human cathepsin B [1] and 930 ± 150 µM at human cathepsin L.
For orientation: solubility means how much of the substance goes into solution per volume. With `O=C(/C=C/c1ccc(O)c(O)c1)OCCc1ccccc1` [Caffeic acid phenethyl ester, caffeic acid phenethyl ester], the figures for the IC50 on human cathepsin B [1], at human cathepsin L and at human cathepsin B [3] were 470 ± 30 µM, 190 ± 30 µM and 100 ± 20 µM, respectively. Besides, the Ki at human cathepsin B [1] (setting [5]) came out at 140 ± 10 µM; on human cathepsin B [1] (setting [6]) it was 70 ± 19 µM; on human cathepsin B [1] (setting [7]), 107 ± 38 µM; at human cathepsin L (setting [8]), 170 ± 30 µM; on human cathepsin L (setting [9]) it was 120 ± 70 µM. The “Mechanism of inhibition of cathepsin B” value is “Catalytic” on human cathepsin B [1] (pH 5.5) and “Mixed” on human cathepsin B [1] (pH 7.4). Also, in series [2], the solubility was around 200 µM. Further, at human cathepsin L, the “Mechanism of inhibition of cathepsin L” value was “Mixed”. The “Inhibition of cathepsin K” value at cathepsin K is “no inhibition”.
As to `O=C(O)C=Cc1ccc(O)c(O)c1` [Caffeic acid, 3,4-dihydroxycinnamic acid], the IC50 against human cathepsin B [1] is 110 ± 10 µM; against human cathepsin L it was above 1000 µM; on human cathepsin B [3], above 1000 µM. The Ki on human cathepsin B [1] (setting [5]) stood at 82 ± 16 µM; on human cathepsin B [1] (setting [6]), 46 ± 4 µM; at human cathepsin B [1] (setting [10]), 270 ± 140 µM; at human cathepsin L (setting [8]), 1270 ± 120 µM; at human cathepsin L (setting [9]), 740 ± 70 µM. Also, the “Mechanism of inhibition of cathepsin B” value on human cathepsin B [1] (pH 7.4) is “Catalytic”. Also, the “Mechanism of inhibition of cathepsin L” value at human cathepsin L is “Mixed”. In addition, the “Mechanism of inhibition of DPPI” value in series [4] was “linear, mixed balanced”. The “Inhibition of cathepsin K” value on cathepsin K is given as “no inhibition”.
On to `O=C(/C=C/c1ccc(O)c(O)c1)O[C@@H]1C[C@](O)(C(=O)O)C[C@@H](O)[C@H]1O` [Chlorogenic acid, chlorogenic acid], for which the figures for the IC50 against human cathepsin B [1], against human cathepsin L and at human cathepsin B [3] were 340 ± 20 µM, 480 ± 20 µM and 360 ± 60 µM, respectively. Also, the Ki at human cathepsin B [1] (setting [5]) came to 1200 ± 1100 µM; at human cathepsin B [1] (setting [6]), 92 ± 15 µM; at human cathepsin B [1] (setting [10]), 340 ± 80 µM; on human cathepsin B [1] (setting [7]), 92 ± 15 µM; at human cathepsin L (setting [8]), 670 ± 60 µM; on human cathepsin L (setting [9]) it was 330 ± 20 µM. Besides, the entries for the “Mechanism of inhibition of cathepsin B” value on human cathepsin B [1] (pH 5.5) and on human cathepsin B [1] (pH 7.4) were “Mixed” and “Mixed balanced”, respectively. The “Mechanism of inhibition of cathepsin L” value at human cathepsin L was “Mixed”. In addition, the “Mechanism of inhibition of DPPI” value in series [4] is “linear catalytic”.
As for `O=C(O)/C=C/c1ccccc1` [Cinnamic acid], the IC50 at human cathepsin B [1] and against human cathepsin L was above 1000 µM in each case.
In the case of `O=C(O)CCc1ccc(O)c(O)c1` [Hydrocaffeic acid, 3-(3,4-Dihydroxyphenyl) propionic acid], the IC50 on human cathepsin B [1] and on human cathepsin L was above 1000 µM each time.
As to `O=C(O)/C=C/c1ccccc1O` [o-Coumaric acid], the IC50 against human cathepsin B [1] and against human cathepsin L was above 1000 µM each time.
The molecule `O=C(O)C=Cc1ccc(O)cc1` [p-Coumaric acid] gave an IC50 on human cathepsin L above 1000 µM.
